The test has as its system HeLa cells. In words: Measurement of the cell cycle inhibition in HeLa cells. Format: cell-based. The following applies: HeLa B cells, 20 h incubation with compound; FACS ratio G0/G1 to G2/M vs DMSO; concentration at which 50% of cells are in cell cycle arrest. As to the method:
Measurement of the Cell Cycle Inhibition in HeLa Cells—Test Procedure:
HeLa B cells are grown in DMEM (Life Technologies Cat No 21969-035) supplemented with 10% Fetal Calf Serum (FCS, Life Technologies Cat No 10270-106) in 180 cm^2 Flasks at 37° C., 92% humidity and 7% CO2.
Cells are seeded at 5×10^4 cells per well in a 24-well plate. Twenty hours later the compounds are added such that the final concentration is 1×10^−6, 3.3×10^−7, 1.1×10^−7, 3.7×10^−8, 1.2×10^−8 and 1×10^−9 M in a final volume of 500 μl. DMSO alone is added to 6 wells as a control. Cells are incubated with the compounds as above for 20 h. Then cells are observed under the microscope to check for cell death, and the 24-well plate is then centrifuged at 1200 rpm for 5 min at 20° C., acceleration position 7 and break position 5 (Eppendorf centrifuge 5804R).
The supernatant is removed and the cells lysed with 0.5 ml RNase Buffer (10 mM NaCitrate, 0.1% Nonidet NP40, 50 μg/ml RNase, 10 μg/ml Propidium iodide) per well. The plates are then incubated for at least 30 min in the dark at RT and the samples then transferred to FACS tubes. Samples are measured in a FACS machine (Beckton Dickinson) at the following settings:
Instrument Settings of the FACS Calibur:
The ratio of cells in G0/G1-phase to G2/M phase is calculated and compared to the value for the controls (DMSO) only. Results are given in table 2 as the IC50 value calculated from the concentration curve plotted against the cell cycle ratio and indicate the compound concentration at which 50% of cells are in cell cycle arrest after treatment with the compound.

pIC50: −log10 of the molar value.

Data on 67 molecules can be found in patent US20080146593A1, “Substituted 5-Phenyl Pyrimidines I In Therapy” (Basf Aktiengesellschaft, priority 2005, published 2008).

As for `Fc1cc(F)c(-c2c(Cl)nc(-n3cc(Br)cn3)nc2N2CCCCC2)c(F)c1` [Example 53], the pIC50 is 7.59.
Consider `C[C@@H](Nc1nc(C(N)=NO)nc(Cl)c1-c1c(F)cc(F)cc1F)C(F)(F)F` [Example 137], for which the negative-log IC50 (pIC50) was 8.82.
As for `COc1cc(F)c(-c2c(Cl)nc(-n3ccnn3)nc2N2CCC(C)CC2)c(F)c1` [Example 69], the pIC50 is 7.68.
The same measure for `Cc1cc(C)n(-c2nc(Cl)c(-c3c(F)cc(F)cc3F)c(NC(C)C)n2)n1` [Example 21]: 7.60; for `C[C@H](Nc1nc(-n2ccc(-c3ccccc3)n2)nc(Cl)c1-c1c(F)cc(F)cc1F)C(F)(F)F` [Example 4]: 7.39.
Regarding `CCC(C)Nc1nc(C(N)=NO)nc(Cl)c1-c1c(F)cc(F)cc1F` (stereo not shown) [Example 146], the pIC50 is 7.49.
With `COc1ccc(-c2c(Cl)nc(C(N)=O)nc2N[C@@H](C)C(C)C)c(Cl)c1` [Example 183], the pIC50 is 7.28.
For `C=CCCN(C)c1nc(-n2cc(C)cn2)nc(Cl)c1-c1ccc(F)cc1Cl` [Example 133], the negative logarithm of the IC50 (pIC50) is 7.39.
The same measure for `COc1cc(F)c(-c2c(Cl)nc(C(N)=O)nc2N2CCC(C)CC2)c(F)c1` [Example 188]: 7.52.
For `COc1ccc(-c2c(Cl)nc(C(C)=NO)nc2N[C@@H](C)C(C)C)c(Cl)c1` [Example 200], the pIC50 is 7.33.
The same measure for `C[C@H](Nc1nc(-n2cc(C#N)cn2)nc(Cl)c1-c1c(F)cc(F)cc1F)C(F)(F)F` [Example 162]: 7.77.
As to `C[C@H](Nc1nc(-n2ccnn2)nc(Cl)c1-c1c(F)cc(F)cc1F)C(F)(F)F` [Example 205], the negative-log IC50 (pIC50) was 8.08.
Take `CC1CCN(c2nc(-n3cnc(N)n3)nc(Cl)c2-c2c(F)cc(F)cc2F)CC1` [Example 94]: the pIC50 was 7.60.
Turning to `CC(CO)Nc1nc(-n2cc(Br)cn2)nc(Cl)c1-c1c(F)cc(F)cc1F` (stereo not shown) [Example 124], the negative-log IC50 (pIC50) is 7.35.
The same measure for `CC1CCCCN1c1nc(-n2cccn2)nc(Cl)c1-c1c(F)cccc1F` (stereo not shown) [Example 125]: 7.42; for `Cc1c[nH]n(-c2nc(Cl)c(-c3c(F)cc(F)cc3F)c(N[C@@H](C)C(F)(F)F)n2)c1=O` [Example 153]: 7.57; for `CC1CCN(c2nc(-n3ccnn3)nc(Cl)c2-c2c(F)cccc2Cl)CC1` [Example 49]: 8.00.
For `Cc1cccc(-c2nc(Cl)c(-c3c(F)cc(F)cc3F)c(N[C@@H](C)C(F)(F)F)n2)n1` [Example 13], the pIC50 was 7.80.
The same measure for `CC1CCCN1c1nc(-n2cncn2)nc(Cl)c1-c1c(F)cc(F)cc1F` (stereo not shown) [Example 75]: 7.85; for `CON=C(N)c1nc(Cl)c(-c2ccc(OC)cc2Cl)c(N[C@@H](C)C(C)C)n1` [Example 186]: 7.48.
Regarding `Cc1ccnc(-c2nc(Cl)c(-c3c(F)cc(F)cc3F)c(NC(C)C)n2)c1` [Example 15], the pIC50 is 7.37.
Take `CC(=NO)c1nc(Cl)c(-c2c(F)cc(F)cc2F)c(N[C@@H](C)C(F)(F)F)n1` [Example 209]: the pIC50 is 7.74.
Regarding `CC(C)Nc1nc(C(N)=NO)nc(Cl)c1-c1c(F)cc(F)cc1F` [Example 144], the negative-log IC50 (pIC50) is 7.60.
Consider `CC(C)[C@H](C)Nc1nc(C(N)=NO)nc(Cl)c1-c1cc(F)ccc1Cl` [Example 201], for which the negative logarithm of the IC50 (pIC50) is 7.52.
Regarding `CC1CCCCN1c1nc(-n2cccn2)nc(Cl)c1-c1c(F)cc(F)cc1F` (stereo not shown) [Example 96], the pIC50 was 7.54.
Turning to `Cc1nc(C)n(-c2nc(Cl)c(-c3c(F)cccc3Cl)c(N3CCC(C)CC3)n2)n1` [Example 85], the negative logarithm of the IC50 (pIC50) was 7.68.
In the case of `C=CCN(C)c1nc(-n2cc(Br)cn2)nc(Cl)c1-c1c(F)cc(F)cc1F` [Example 123], the negative-log IC50 (pIC50) was 7.31.
As for `CCC(C)Nc1nc(-c2csc(C)n2)nc(Cl)c1-c1c(F)cc(F)cc1F` (stereo not shown) [Example 71], the negative logarithm of the IC50 (pIC50) is 7.60.
As for `Fc1cc(F)c(-c2c(Cl)nc(-n3ccnn3)nc2N2CCCCC2)c(F)c1` [Example 56], the pIC50 is 7.96.
The figure for `Cc1nn(-c2nc(Cl)c(-c3c(F)cc(F)cc3F)c(N[C@@H](C)C(F)(F)F)n2)c(C)c1Cl` [Example 3] is 7.51; for `CC(C)Nc1nc(-c2ccccn2)nc(Cl)c1-c1c(F)cc(F)cc1F` [Example 2] it is 7.32; for `COc1cc(F)c(-c2c(Cl)nc(C(N)=S)nc2N[C@@H](C)C(F)(F)F)c(F)c1` [Example 203] it is 7.33.
As for `CC1CCCN1c1nc(C(N)=NO)nc(Cl)c1-c1ccc(F)cc1Cl` (stereo not shown) [Example 208], the pIC50 was 7.25.
Consider `CC(C)Nc1nc(-c2cnccn2)nc(Cl)c1-c1c(F)cccc1Cl` [Example 25], for which the pIC50 was 7.62.
As to `CC(C)Nc1nc(-n2ccc(C(C)C)n2)nc(Cl)c1-c1c(F)cc(F)cc1F` [Example 22], the negative-log IC50 (pIC50) was 7.49.
`C[C@H](Nc1nc(-c2cnccn2)nc(Cl)c1-c1c(F)cc(F)cc1F)C(F)(F)F` [Example 27]: the pIC50 was 8.46.
With `Fc1cc(F)c(-c2c(Cl)nc(-n3ccnn3)nc2N2CC=CCC2)c(F)c1` [Example 45], the negative-log IC50 (pIC50) is 7.77.
Consider `CCN(CC)c1nc(-c2cnccn2)nc(Cl)c1-c1c(F)cc(F)cc1F` [Example 26], for which the pIC50 was 7.42.
`COc1cc(F)c(-c2c(Cl)nc(C(N)=NO)nc2N2CCC(C)CC2)c(F)c1` [Example 190]: the negative logarithm of the IC50 (pIC50) is 7.59.
Regarding `CNC(=O)c1nc(Cl)c(-c2c(F)cc(F)cc2F)c(N[C@@H](C)C(F)(F)F)n1` [Example 174], the negative logarithm of the IC50 (pIC50) was 7.38.
With `CC1CCCN1c1nc(-n2cccn2)nc(Cl)c1-c1c(F)cccc1F` (stereo not shown) [Example 140], the pIC50 is 7.70.
With `CC(Nc1nc(-c2cccnn2)nc(Cl)c1-c1c(F)cc(F)cc1F)C(F)(F)F` (stereo not shown) [Example 78], the pIC50 is 7.68.
For `CC1CCN(c2nc(-n3cncn3)nc(Cl)c2-c2c(F)cccc2Cl)CC1` [Example 47], the negative-log IC50 (pIC50) was 7.59.
The same measure for `Cc1nc(-n2ccnn2)nc(N2CCC(C)CC2)c1-c1c(F)cc(F)cc1F` [Example 90]: 7.57; for `C[C@H](Nc1nc(-n2cccn2)nc(F)c1-c1c(F)cc(F)cc1F)C(F)(F)F` [Example 167]: 7.70; for `C[C@H](Nc1nc(-n2cncn2)nc(Cl)c1-c1c(F)cc(F)cc1F)C(F)(F)F` [Example 8]: 7.89.
Take `CC1CCN(c2nc(-n3cncn3)nc(Cl)c2-c2c(F)cc(F)cc2F)CC1` [Example 28]: the pIC50 is 7.77.
Take `C=CCN(C)c1nc(-n2cccn2)nc(Cl)c1-c1c(F)cc(F)cc1F` [Example 142]: the pIC50 was 7.41.
As for `COc1c(C)cnn1-c1nc(Cl)c(-c2c(F)cc(F)cc2F)c(N[C@@H](C)C(F)(F)F)n1` [Example 154], the negative logarithm of the IC50 (pIC50) is 7.59.
As for `Cc1ccn(-c2nc(Cl)c(-c3c(F)cccc3Cl)c(NC(C)C)n2)n1` [Example 20], the pIC50 is 7.41.
For `CON=C(N)c1nc(Cl)c(-c2cc(F)ccc2Cl)c(N[C@@H](C)C(C)C)n1` [Example 202], the pIC50 was 7.42.
The figure for `COc1cc(F)c(-c2c(Cl)nc(-c3ccccn3)nc2N2CCC(C)CC2)c(F)c1` [Example 61] is 7.68; for `CC1CCCN(c2nc(-n3cccn3)nc(Cl)c2-c2c(F)cc(F)cc2F)C1` (stereo not shown) [Example 43] it is 7.72.
The figure for `C[C@H](Nc1nc(C#N)nc(Cl)c1-c1c(F)cc(F)cc1F)C(F)(F)F` [Example 10] is 7.33.
With `Cc1ccc(-c2c(Cl)nc(-n3ccc(N)n3)nc2NCC(F)(F)F)c(F)c1` [Example 149], the negative logarithm of the IC50 (pIC50) is 7.39.
The same measure for `COc1cc(F)c(-c2c(Cl)nc(-n3cccn3)nc2N2CCC(C)CC2)c(F)c1` [Example 67]: 7.89.
The figure for `CC1CCN(c2nc(-n3cncn3)nc(Cl)c2-c2c(F)cccc2F)CC1` [Example 116] is 7.38; for `Fc1cc(F)c(-c2c(Cl)nc(-n3cncn3)nc2N2CCCCC2)c(F)c1` [Example 52] it is 7.66; for `CCC(C)Nc1nc(-n2ccnn2)nc(Cl)c1-c1c(F)cccc1Cl` (stereo not shown) [Example 107] it is 7.41.
Consider `C[C@H](Nc1nc(C(N)=NO)nc(Cl)c1-c1ccc(F)cc1Cl)C(F)(F)F` [Example 172], for which the pIC50 was 7.68.
As for `Cc1ccc(-c2c(Cl)nc(-n3cc(Cl)cn3)nc2NCC(F)(F)F)c(F)c1` [Example 150], the negative-log IC50 (pIC50) was 7.30.
The same measure for `C[C@H](Nc1nc(-n2cccn2)nc(Cl)c1-c1c(F)cc(F)cc1F)C(F)(F)F` [Example 1]: 8.32; for `CC[C@H](C)Nc1nc(-n2cccn2)nc(Cl)c1-c1ccc(C)cc1F` [Example 102]: 7.30.
With `C[C@H](Nc1nc(-n2cc(C#N)c(N)n2)nc(Cl)c1-c1c(F)cccc1Cl)C(F)(F)F` [Example 187], the pIC50 is 7.41.
With `COc1cc(F)c(-c2c(Cl)nc(-c3ccccn3)nc2NC2CCCC2)c(F)c1` [Example 64], the pIC50 is 7.68.
The same measure for `Cc1nc(-n2cccn2)nc(N[C@@H](C)C(F)(F)F)c1-c1c(F)cc(F)cc1F` [Example 156]: 7.82; for `CON=C(N)c1nc(Cl)c(-c2ccc([N+](=O)[O-])cc2Cl)c(N[C@@H](C)C(C)C)n1` [Example 219]: 7.54.
